Results taken from patent US20160136127A1, “USE OF TETRAHYDROCANNABINOL AND/OR CANNABIDIOL FOR INCREASING RADIOSENSITVITY IN THE TREATMENT OF A BRAIN TUMOUR” (GW PHARMA LIMITED, priority 2013, published 2016).

Legend:
[1] = test system: glioma cell lines T98G, U87MG and GL261; experiment: Clonogenic cell survival assay after irradiation (radiosensitivity of glioma cell lines); assay type: cell-based, human (T98G, U87MG); mouse (GL261); conditions: pure phytocannabinoid used alone, increasing concentrations, 24 h prior to irradiation (0, 1, 2 and 5 Gy, Cs137); FIG. 2 / FIG. 3
Protocol: The human glioma cell lines T98G and U87MG were obtained from ATCC, and were lines derived from patients with a glioblastoma multiforme tumour and a glioblastoma astrocytoma respectively.
The mouse glioma cell line GL261, which is syngeneic to the C57BL/6 mouse was acquired from the NCI.
Cells were exposed to increasing doses of irradiation and then clonogenic cell survival assays were performed. The ability of the cells to survive an irradiation insult and go on and divide indefinitely forming a colony was assessed in this manner and used as our read-out of radiosensitivity.
(§1) Cells were initially seeded into flasks and left to adhere overnight. […] Cells were then harvested, counted and seeded again at increasing densities in 6-well plates, adjusting the density appropriately for the radiation dose, and then incubated for approximately 14 days. […] Colonies consisting of >50 cells were counted and calculated as a proportion of the number of cells initially seeded (surviving fraction). […]
as §1, with “surviving fraction was calculated.” for “calculated as a proportion of the number of cells initially seeded (surviving fraction).”

[2] = test system: U87 and U373 human glioma cell lines; conditions: cited from earlier work
[3] = test system: U87 human glioma cells subcutaneously implanted to nude mice; conditions: cited from earlier work

C=C(C)[C@@H]1CCC(C)=C[C@H]1c1c(O)cc(CCCCC)cc1O [CBD, Cannabidiol]
effect on radiosensitivity (surviving fraction) [1]: did not appear to alter the radiosensitivity
anti-proliferative effects in-vitro [2]: anti-proliferative effects
anti-proliferative effects in-vivo [3]: anti-proliferative effects

CCCCCc1cc(O)c2c(c1)OC(C)(C)[C@@H]1CCC(C)=C[C@@H]21 [THC, Tetrahydrocannabinol]
effect on radiosensitivity (surviving fraction) [1]: did not appear to alter the radiosensitivity
